pEC50, pIC50: −log10 of the molar value.
How the values were obtained:
expanded CD3+ T cells = assay: T cell enhancement of cytokines: IL2 measurement (HTRF) in expanded CD3+ T cells stimulated with anti-CD3/anti-CD28; assay type: cell-based, human; settings: IL-2 measurement
Experimental: T cells are isolated from whole blood of healthy donors by immunomagnetic negative selection following manufacture's protocol (StemCell Technologies, human T cell isolation kit). Purity of isolated cells is assessed by flow cytometry and yields 95-98% CD3^+ T cells. For expansion of T cells, 1×10^6 cells/well are plated in serum free cell expansion media (ThermoFisher) containing 30 U of recombinant human IL2 (R&D) and stimulated with 25 ul of CD3/CD28 beads (Invitrogen) in 24 well plates for 3-4 days. T cells are then expanded in 175 cm flasks and maintained at a cell density of 1 to 2.5×10^6 cells/ml days by addition of ⅔ of fresh media every 2-3 days. After 10-14 days, cells are frozen in BamBanker freezing media (Thermo) and stored in liquid nitrogen.
For IL2 measurement, expanded CD3^+ T cells are dispensed at 100K cells/well (cultured in X-VIVO 10 Serum-free media) and are stimulated with plate-bound anti-CD3 and soluble anti-CD28 in the presence of vehicle or compound of the disclosure at various concentrations for 24 h. As outlined in the manufacturer's protocol (Cisbio), 16 μL of conditioned media is transferred to a white 384-well low volume plate. Following a 24 h incubation with the anti-IL2 antibodies, the homogenous time resolved fluorescence (HTRF) is measured.

MAP4K1 (HPK1) = MAP4K1 (HPK1) (Homo sapiens (Human), UniProt Q92918); assay: MAP4K1 (HPK1) biochemical enzymatic activity, electrophoretic mobility shift (EZReader 2), ATP at APPKM (26 μM)
Sequence of MAP4K1 (HPK1) (Q92918 whole entry): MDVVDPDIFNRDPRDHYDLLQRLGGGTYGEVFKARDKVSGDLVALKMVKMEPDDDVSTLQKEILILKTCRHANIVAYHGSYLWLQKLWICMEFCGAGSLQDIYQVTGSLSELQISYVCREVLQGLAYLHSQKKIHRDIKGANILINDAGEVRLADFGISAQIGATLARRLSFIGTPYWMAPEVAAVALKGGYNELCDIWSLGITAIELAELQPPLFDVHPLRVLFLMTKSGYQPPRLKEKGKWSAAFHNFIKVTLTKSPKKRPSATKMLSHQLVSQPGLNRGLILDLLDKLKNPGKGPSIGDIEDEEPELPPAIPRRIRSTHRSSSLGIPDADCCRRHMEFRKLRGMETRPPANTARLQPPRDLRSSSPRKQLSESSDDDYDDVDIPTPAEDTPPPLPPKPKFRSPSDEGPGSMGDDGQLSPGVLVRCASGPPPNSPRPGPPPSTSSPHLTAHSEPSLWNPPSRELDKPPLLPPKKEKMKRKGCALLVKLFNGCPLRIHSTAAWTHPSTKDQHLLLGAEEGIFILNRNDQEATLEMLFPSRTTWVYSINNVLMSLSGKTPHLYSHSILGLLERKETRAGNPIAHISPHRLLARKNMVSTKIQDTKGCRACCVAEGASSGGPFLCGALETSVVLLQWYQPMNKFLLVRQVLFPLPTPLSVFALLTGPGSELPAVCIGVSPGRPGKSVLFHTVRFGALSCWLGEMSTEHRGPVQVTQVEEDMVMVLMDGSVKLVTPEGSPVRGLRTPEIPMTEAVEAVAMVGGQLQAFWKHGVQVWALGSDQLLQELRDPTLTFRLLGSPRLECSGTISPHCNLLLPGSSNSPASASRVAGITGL
In short: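 Enzyme at 0.1-15 nM was incubated with 1.5 μM fluorescent peptide and ATP at the apparent Km (26 μM) in HEPES pH 7.5, MgCl2, DTT and Brij 35. The reaction ran at 25° C for 60-180 min with a 10-point, 4-fold compound series (1% DMSO) and was stopped with EDTA. Substrate and product peptides were resolved by microfluidic mobility shift, and their peak ratio gave activity.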

[1] = Homo sapiens, T-cell, class designation
[2] = Homo sapiens, T-cell, numeric value

pEC50 (expanded CD3+ T cells; [1])	pEC50 (expanded CD3+ T cells; [2])	pIC50 (MAP4K1 (HPK1); class designation)	pIC50 (MAP4K1 (HPK1); numeric value)	pEC50 (expanded CD3+ T cells; class designation)	pEC50 (expanded CD3+ T cells; numeric value)	SMILES
–	–	9.00 to 9.51	9.24	> 7.46	7.49	CC[C@]1(C)OC(=O)c2ccc(Nc3cc4c(C(C)(C)N)cnc(OC5CC5)c4cn3)nc21 [Compound 113]
–	–	9.00 to 9.51	9.06	> 7.46	7.59	CC[C@@]1(C)OC(=O)c2ccc(Nc3cc4c(C(C)(C)N)cnc(OC5CC5)c4cn3)nc21 [Compound 114]
< 7.26	6.64	< 8.00	8.13	–	–	CC(C)(N)c1cnc(OCC(F)(F)F)c2cnc(Nc3ccnc(C(C)(C)F)n3)cc12 [Compound 115]
< 7.26	7.19	8.00 to 8.96	8.67	–	–	CC(C)(N)c1cnc(OCC(F)F)c2cnc(Nc3ccc4c(n3)C(C)(C)OC4=O)cc12 [Compound 116]
> 7.46	8.12	> 9.52	9.70	–	–	C[C@@H]1c2nc(Nc3cc4c(C(C)(C)N)cnc(NC5CC5)c4cn3)ccc2C(=O)OC1(C)C [Compound 123]
> 7.46	8.13	> 9.52	9.62	–	–	C[C@@H]1OC(=O)c2ccc(Nc3cc4c(C(C)(C)N)cnc(NC5CCC5)c4cn3)nc2[C@H]1C [Compound 124]
–	–	> 9.52	9.77	> 7.46	7.68	C[C@H]1OC(=O)c2ccc(Nc3cc4c(C(C)(C)N)cnc(OC5CC5)c4cn3)nc2C1(C)C [Compound 127]
–	–	9.00 to 9.51	9.34	7.35 to 7.45	7.45	CC[C@](C)(N)c1cnc(OC2CC2)c2cnc(Nc3ccc4c(n3)[C@@H](C)[C@H](C)OC4=O)cc12 [Compound 131]
–	–	8.00 to 8.96	8.23	7.26 to 7.35	7.27	CC[C@](C)(N)c1cnc(OC2CC2)c2cnc(Nc3ccc4c(n3)CC(C)(C)OC4=O)cc12 [Compound 133]
> 7.46	7.50	9.00 to 9.51	9.27	–	–	CC1(C)Cc2nc(Nc3cc4c(C(C)(C)N)cnc(OC5(C)CC5)c4cn3)ccc2C(=O)O1 [Compound 135]
–	–	9.00 to 9.51	9.41	7.35 to 7.45	7.39	CC[C@@](C)(N)c1cnc(OC2CC2)c2cnc(Nc3ccc4c(n3)C(C)(C)COC4=O)cc12 [Compound 136]
–	–	> 9.52	9.57	> 7.46	7.86	CC[C@H]1c2nc(Nc3cc4c(C(C)(C)N)cnc(OC5CC5)c4cn3)ccc2C(=O)O[C@H]1C [Compound 138]
> 7.46	7.67	9.00 to 9.51	9.38	–	–	C[C@@H]1OC(=O)c2ccc(Nc3cc4c(C(C)(C)N)cnc(OC5COC5)c4cn3)nc2[C@H]1C [Compound 141]
–	–	> 9.52	10.00	> 7.46	7.87	CC[C@@](C)(N)c1cnc(OC2CC2)c2cnc(Nc3ccc4c(n3)[C@@H](C)C(C)(C)OC4=O)cc12 [Compound 156]
–	–	> 9.52	9.85	> 7.46	7.67	CC[C@](C)(N)c1cnc(OC2CC2)c2cnc(Nc3ccc4c(n3)C(C)(C)[C@@H](C)OC4=O)cc12 [Compound 157]
> 7.46	7.56	9.00 to 9.51	9.41	–	–	C[C@@H]1OC(=O)c2ccc(Nc3cc4c(C(C)(C)N)cnc(O[C@H]5CCOC5)c4cn3)nc2[C@H]1C [Compound 159]
7.35 to 7.45	7.40	> 9.52	9.60	–	–	C[C@@H]1OC(=O)c2ccc(Nc3cc4c(C(C)(C)N)cnc(OCC(C)(F)F)c4cn3)nc2[C@H]1C [Compound 166]
–	–	> 9.52	9.82	7.35 to 7.45	7.38	CC1(C)Cc2nc(Nc3cc4c([C@](C)(N)C5CCC5)cnc(OC5CC5)c4cn3)ccc2C(=O)O1 [Compound 168]

The next lines start with the molecule.

SMILES	pEC50 (expanded CD3+ T cells; [1])	pEC50 (expanded CD3+ T cells; [2])	pIC50 (MAP4K1 (HPK1); class designation)	pIC50 (MAP4K1 (HPK1); numeric value)	pEC50 (expanded CD3+ T cells; class designation)	pEC50 (expanded CD3+ T cells; numeric value)
CC1(C)Cc2nc(Nc3cc4c(C(C)(C)N)cnc(OCC(F)F)c4cn3)ccc2C(=O)O1 [Compound 73]	> 7.46	7.63	> 9.52	9.66	–	–
CC1(C)Cc2nc(Nc3cc4c([C@](C)(N)C5CC5)cnc(OC5CC5)c4cn3)ccc2C(=O)O1 [Compound 74, R-2-((5-(1-amino-1-cyclopropylethyl)-8-cyclopropoxy-2,7-naphthyridin-3-yl)amino)-7,7-dimethyl-7,8-dihydro-5H-pyrano[4,3-b]pyridin-5-one]	> 7.46	7.65	> 9.52	9.92	–	–
CC1(C)Cc2nc(Nc3cc4c(C(C)(C)N)cnc(OCC(F)(F)F)c4cn3)ccc2C(=O)O1 [Compound 77]	> 7.46	7.49	9.00 to 9.51	9.19	–	–
C[C@@H]1OC(=O)c2ccc(Nc3cc4c(C(C)(C)N)cnc(OCC(F)(F)F)c4cn3)nc2[C@H]1C [Compound 78]	> 7.46	7.94	> 9.52	9.72	–	–
CC[C@@](C)(N)c1cnc(OC2CC2)c2cnc(Nc3ccc4c(n3)[C@@H](C)[C@H](C)OC4=O)cc12 [Compound 80]	–	–	> 9.52	10.10	> 7.46	8.39
C[C@@H]1OC(=O)c2ccc(Nc3cc4c(C(C)(C)N)cnc(OC5(C)CC5)c4cn3)nc2[C@H]1C [Compound 82]	> 7.46	7.68	> 9.52	9.80	–	–
C[C@@H]1c2nc(Nc3cc4c(C(C)(C)N)cnc(OC5(C)CC5)c4cn3)ccc2C(=O)OC1(C)C [Compound 83]	> 7.46	7.54	> 9.52	9.72	–	–
CC[C@](C)(N)c1cnc(OC2(C)CC2)c2cnc(Nc3ccc4c(n3)[C@@H](C)[C@H](C)OC4=O)cc12 [Compound 85]	–	–	> 9.52	9.66	7.35 to 7.45	7.44
CC[C@](C)(N)c1cnc(OC2(C)CC2)c2cnc(Nc3ccc4c(n3)[C@@H](C)C(C)(C)OC4=O)cc12 [Compound 87]	–	–	9.00 to 9.51	9.36	> 7.46	7.50
C[C@@H]1OC(=O)c2ccc(Nc3cc4c([C@@](C)(N)C5CC5)cnc(OC5(C)CC5)c4cn3)nc2[C@H]1C [Compound 88]	–	–	> 9.52	9.80	> 7.46	7.94
C[C@@H]1c2nc(Nc3cc4c([C@](C)(N)C5CC5)cnc(OC5(C)CC5)c4cn3)ccc2C(=O)OC1(C)C [Compound 91]	–	–	> 9.52	10.00	> 7.46	7.82
CC[C@](C)(N)c1cnc(OC2(C)CC2)c2cnc(Nc3ccc4c(n3)[C@@H](C)[C@@H](C)OC4=O)cc12 [Compound 92]	–	–	> 9.52	9.60	> 7.46	7.81
C[C@@H]1c2nc(Nc3cc4c([C@](C)(N)C5CC5)cnc(OC5(C)CC5)c4cn3)ccc2C(=O)O[C@@H]1C [Compound 94]	–	–	> 9.52	9.85	> 7.46	7.63
CC[C@@](C)(N)c1cnc(OC2CC2)c2cnc(Nc3ccc4c(n3)[C@@H](C)[C@@H](C)OC4=O)cc12 [Compound 96]	> 7.46	8.03	> 9.52	–	–	–
COc1ncc([C@](C)(N)C2CC2)c2cc(Nc3ccc4c(n3)[C@@H](C)C(C)(C)OC4=O)ncc12 [Compound 101]	–	–	> 9.52	9.96	> 7.46	7.68
COc1ncc([C@@](C)(N)C2CC2)c2cc(Nc3ccc4c(n3)[C@@H](C)C(C)(C)OC4=O)ncc12 [Compound 102]	–	–	8.00 to 8.96	8.73	> 7.46	7.54
COc1ccc(C(C)(C)N)c2cc(Nc3ccc4c(n3)CC(C)(C)OC4=O)ncc12 [Compound 103]	> 7.46	8.51	> 9.52	9.96	–	–
CC(C)(N)c1cnc(OC2CC2)c2cnc(Nc3ccc4c(n3)C(C)(C)OC4=O)cc12 [Compound 105]	7.26 to 7.35	7.30	8.00 to 8.96	8.68	–	–
C[C@@H]1OC(=O)c2ccc(Nc3cc4c(C(C)(C)N)cnc(NC5CC5)c4cn3)nc2[C@H]1C [Compound 109]	> 7.46	8.01	> 9.52	9.68	–	–
CC[C@@](C)(N)c1cnc(OC2CC2)c2cnc(Nc3ccc4c(n3)C(C)(C)OC4=O)cc12 [Compound 110]	–	–	9.00 to 9.51	9.26	> 7.46	7.47
CC[C@](C)(N)c1cnc(OC2CC2)c2cnc(Nc3ccc4c(n3)C(C)(C)OC4=O)cc12 [Compound 111]	–	–	< 8.00	7.78	< 7.26	5.58
CC(C)(N)c1cnc(OC2CC2)c2cnc(Nc3ccc4c(n3)C(C)(C)COC4=O)cc12 [Compound 112]	> 7.46	7.71	> 9.52	9.64	–	–
